Literature values as cited in US20060182828A1, “METHODS OF REDUCING LIPID PEROXIDATION AND ACHIEVING RELATED HEALTH BENEFITS BY THE ADMINISTRATION OF TOCOPHEROL AND SESAME LIGNANS” (priority 2005, published 2006).

Tests used:
LDL [1] = test system: LDL
[2] = test system: peroxisomal palmitoyl Co-A oxidation; conditions: in vivo
[3] = rats
mouse skin papillomas = conditions: induced with 12-0-tetradecanoylphorbol 1 acetate
[4] = test system: sterol regulatory element binding protein-1 (SREBP-1) m RNA; conditions: 0.4% sesamin diet group
LDL [5] = conditions: Cu-ascorbate induced
heart disease = conditions: supplementation with 30 IU to 100 IU
[6] = 32.4 then 64.8 mg, total of 8 weeks
[7] = hypercholesterolemic men, before

Compound: Cc1c(C)c2c(c(C)c1O)CC[C@@](C)(CCC[C@H](C)CCC[C@H](C)CCCC(C)C)O2 [alpha-tocopherol]
- formation of 4-hydroxy-2-nonenal (4-HNE), of control values (LDL [1]): absolutely no effect
- formation of malondialdehyde (MDA), of control values (LDL [1]): absolutely no effect

Compound: c1cc2c(cc1[C@H]1OC[C@H]3[C@@H]1CO[C@@H]3c1ccc3c(c1)OCO3)OCO2 [episesamin]
- increase of peroxisomal palmitoyl Co-A oxidation rate [2]: 5.1 fold

Compound: Cc1c(O)cc2c(c1C)O[C@](C)(CCC[C@H](C)CCC[C@H](C)CCCC(C)C)CC2 [gamma-tocopherol]
- gamma tocopherol level in serum ([3]; serum): 3 micromoles per liter
- gamma tocopherol levels in tissues (liver, kidney, brain) ([3]; tissue): 3 nmol per gram

Compound: CC(C)(Sc1cc(C(C)(C)C)c(O)c(C(C)(C)C)c1)Sc1cc(C(C)(C)C)c(O)c(C(C)(C)C)c1 [probucal]
- formation of 4-hydroxy-2-nonenal (4-HNE), of control values (LDL [1]): absolutely no effect
- formation of malondialdehyde (MDA), of control values (LDL [1]): absolutely no effect

Compound: Oc1ccc(C=Cc2cc(O)cc(O)c2)cc1 [resveratrol]
- reduction of formation of mouse skin papillomas (mouse skin papillomas): 60%

Compound: c1cc2c(cc1[C@H]1OC[C@H]3[C@@H]1CO[C@@H]3c1ccc3c(c1)OCO3)OCO2 [sesamin]
- SREBP-1 m RNA level relative to rats fed a sesamin-free diet [4]: one-half
- LDL cholesterol, after [6]: 156.4
- apolipoprotein B, after [6]: 168.5
- changes in HDL cholesterol [6]: no changes
- changes in triglycerides [6]: no changes
- mean total cholesterol, after [6]: 248.3
- LDL cholesterol, before [7]: 187.1
- apolipoprotein B, before [7]: 188.8
- mean total cholesterol, before [7]: 272.0
- increase of peroxisomal palmitoyl Co-A oxidation rate [2]: 1.6 fold

Compound: Oc1cc2c(cc1[C@H]1OC[C@H]3[C@@H]1CO[C@@H]3c1ccc3c(c1)OCO3)OCO2 [sesaminol]
- lag time longer than tetrahydrocurcumin (LDL [5]): 567%
- lag time of LDL oxidation (LDL [5]): 510 min
- formation of 4-hydroxy-2-nonenal (4-HNE), of control values (LDL [1]): 17%
- formation of malondialdehyde (MDA), of control values (LDL [1]): 13%
- inhibited TBARS formation (LDL [1]; 0.1 micromolar concentration): 82.8%
- protection against TBARS formation (LDL [1]; one micromolar concentration): 100%
- IC50 (LDL [1]; read-out: IC50, lipid peroxidation of LDL): 36 ± 10 nM

Compound: Oc1ccc2c(c1)OCO2 [sesamol]
- reduction of formation of mouse skin papillomas (mouse skin papillomas): 50%

Compound: vitamin E
- lowers the risk of heart disease (heart disease): 41%
